According to patent US20170016886A1, “INDUCED PLURIPOTENT STEM CELL MODEL OF NOONAN SYNDROME AND USE THEREOF” (KOREA ADVANCED INSTITUTE OF SCIENCE AND TECHNOLOGY, priority 2014, published 2017):

What was measured:
[1] = test system: NS-iPSCs (Noonan syndrome patient-derived induced pluripotent stem cells); test: Chemically directed differentiation of NS-iPSCs into embryoid bodies and neural rosettes, cell morphology; assay type: cell-based, human; details: stepwise treatment with both dorsomorphin (5 μM) and SB431542 (10 μM) together; NS-iPSC #4 and #5; compared with natural differentiation and normal control (H9, CRL12)
Excerpt: Due to the abnormality in the signal transduction system in Noonan syndrome, EBs and neural rosettes naturally differentiated from NS-iPSCs were abnormally developed. To overcome this problem, the present inventors induced chemically directed differentiation of EBs and neural rosettes from NS-iPSCs by using dorsomorphin (DM) and SB431542 according to the schematic diagram of FIG. 18 (FIG. 18 and Table 6). Particularly, the colonies of NS-iPSC #4 and NS-iPSC #5 induced by the same manner as described in Example <2-1> were quartered by using 1 ml insulin syringe. The quartered NS-iPSCs were loaded on ultra-low attachment dish (SPL life sciences Co., Ltd, Korea), which were resuspended in 4 ml of embryoid body differentiation media which was the DMEM/F12 (Invitrogen, USA) containing 10% serum replacement (SR; GIBCO, USA). The resuspended NS-iPSCs were cultured for 4 days to induce the differentiation into NS-EBs. Then, the differentiated NS-EBs were obtained and cultured for 4˜5 days on the matrigel (1:50, BD biosciences, USA) coated dish in the neural rosette media which consists of DMEM/F12 supplemented with N2, B27 and […] of bFGF (FGF2, R&D systems, USA). The generated Noonan syndrome-derived neural rosettes were mechanically selected and placed on the fibronectin (BD biosciences, USA) coated dish, followed by culture in the neural rosette media for 4˜5 days. […]

[2] = test system: neural rosettes chemically differentiated from NS-iPSCs; test: mRNA expression of ectoderm, neural rosette and neural marker genes in neural rosettes chemically differentiated from NS-iPSCs (RT-PCR, q-PCR); assay type: cell-based, human; details: stepwise treatment with both dorsomorphin (5 μM) and SB431542 (10 μM) together, versus normal control (H9, CRL12)
Experimental: To investigate whether or not the neural marker genes were normally expressed in the neural rosettes chemically differentiated from NS-iPSCs, the mRNA expression levels of the ectoderm genes PAX6, ZIC1, NESTIN, and VIMENTIN, and the NR genes PLZF, NR2F1, HES5, and DACH1, and the neural genes TUJ1, ASCL1, and NF1 were measured in the chemically differentiated NS-EBs. Particularly, the neural rosettes chemically differentiated from NS-iPSCs by the same manner as described in Example <6-1> were prepared. […] The expressions of those genes were observed by RT-PCR at mRNA level. As for the normal control, the neural rosettes chemically differentiated from H9 cell line and CRL12 in Example <6-1> were used. […] The expression of NR2F1 gene was measured by q-PCR at mRNA level. As the control group for the normalization of the expression level, GAPDH gene was used so that the expression was also measured. ΔCt value of each gene was calculated by the difference between Ct value of GAPDH and Ct value of NR2F1 gene. As for the control, the human normal embryonic stem cell line H9 and the human normal fibroblast-derived iPSCs (CRL12) were induced into neural rosettes via chemical treatments as described in Example <6-1>. The expressions of those neural rosettes were compared with the gene expression of NS-NR. The results are presented by the fold change calculated by the mathematical formula 1 above.

Compound: NC(=O)c1ccc(-c2nc(-c3ccc4c(c3)OCO4)c(-c3ccccn3)[nH]2)cc1 [SB431542]
- cell morphology of the chemically differentiated EBs and neural rosettes [1]: recovered to a normal shape
- expression of NR2F1 ([2]; mRNA level in NS neural rosettes): decreased
- expressions of ectoderm, neural rosette, and neural marker genes ([2]; mRNA level): adjusted to the nearly normal level
